# According to US8173360B2, “Cell death inhibitor” (Takeda Pharmaceutical Company Limited, priority 2002, dated 2012):
# Key:
# [1] = system: primary cardiomyocytes derived from rat neonates; settings: simvastatin 0.3 μM or atorvastatin 1 μM, 3 days
# Experimental: The primary cardiomyocytes derived from rat neonates obtained in EXPERIMENTAL EXAMPLE 2 were suspended in Medium 199 containing 10% fetal cow serum in 6×10^5 cells/ml, and the suspension was seeded on a 96-well plate in 0.1 mlwell, followed by incubation for a day in a CO2 incubator set at 37° C. and 5% CO2. After stirring with a micromixer (manufactured by Taiyo Kagaku Kogyo Co., Ltd.), the medium was replaced 3 times with serum-free Medium 199 to remove serum. […] Thereafter, fetal cow serum was added thereto to become 10%. After further incubation in a CO2 incubator set at 37° C. and 5% CO2 for about 17 hours, the viable cell count was determined using a cell count assay kit (manufactured by Dojin Chemical Laboratory) in which WST-8 was used as a chromogen, thereby to examine the inhibitory activity of myocardial cell death induced by the statin. The experiment described above was carried out independently in 3 runs. The viable cell count in each of the experimental groups was named the mean value (±SD) of the viable cell counts in each experimental group, when the viable cell count in the group with no statin added was made 1.
# [2] = system: Normal human umbilical vein endothelial cells; assay: Inhibitory activity against serum depletion-induced cell death of vascular smooth muscle; assay type: cell-based; settings: serum-free MCDB131 medium, 3 days, WST-8
# [3] = system: primary cardiomyocytes derived from rat neonates; assay: Inhibition of serum depletion-induced myocardial cell death (WST-8 viable cell count); assay type: cell-based
# From the text: Neonates (within one day after birth) were obtained from pregnant Wistar rats purchased from Charles River Japan, Inc. and anesthetized with ether. After sterilization with 70% ethanol, the heart was removed with forceps. After washing with phosphate buffered saline (manufactured by Takara Co., Ltd., T900), the heart removed was minced with surgical scissors. The pieces of tissue were washed 4 or 5 times with phosphate buffered saline to remove most of non-cardiomyocytes derived from blood. To the pieces of tissue corresponding to 10 neonates, 5 ml of an enzyme solution [which is a solution of trypsin (1.25 mg) (manufactured by Difco) and collagenase (0.25 mg) (manufactured by Sigma) in phosphate buffer (1 ml)] was added. The mixture was stirred for 15 minutes with a stirrer while maintaining at 37° C. After 2.5 ml of the enzyme solution was replenished, the mixture was stirred for further 15 minutes, and this procedure was repeated twice. Subsequently, Medium 199 (manufactured by Gibco) containing 10% fetal cow serum (manufactured Biowicker, Inc.) was added to the mixture in a half volume of the enzyme solution to terminate the enzymatic reaction. After filtering through a cell strainer (manufactured by Falcon), the mixture was centrifuged at 400×g for 5 minutes to collect the cells.
# The cells were then recovered, filtered through a cell strainer and centrifuged at 400×g for 5 minutes to collect primary cardiomyocytes derived from rat neonates.
# Next, the primary cardiomyocytes derived from rat neonates (corresponding 10 neonates) were suspended in 2 ml of a hypotonic solution [solution obtained by dissolving NH4Cl (8.29 g), KHCO3 (1.0 g) and EDTA/2Na (ethylenediaminetetraacetic acid disodium; manufactured by Dojin Chemical Laboratory) (37 mg) in water (1 L)]. The suspension was allowed to stand for 3 minutes to disrupt erythrocytes. To the suspension 10 ml of Medium 199 containing 10% fetal cow serum was added, and the mixture was centrifuged at 400×g for 5 minutes to collect the primary cardiomyocytes derived from rat neonates. […] An aliquot of the cardiomyocytes suspension obtained was taken out and 0.3% trypan blue was added thereto. The mixture was gently stirred and the count of cardiomyocytes was counted with a hemocytometer.
# Incubation was continued for further 4 days to induce cell death. […]
# The mean value (±SD) in the minimum effective concentration of Compound 1 required for inhibiting the cell death was 0.015±0.011 μM. The concentration of Compound 1 required for increasing the mean cell count by 30% when compared to the cell count without the addition of Compound 1 was determined to be the minimum effective concentration. […]
# [4] = system: genes under control of Antioxidant response element (ARE); assay: Gene expression analysis by DNA chip; assay type: cell-based, rat; settings: for Increasing Rate of Expression: 21 hours, without compound = 1
# Experimental: After gently stiffing, the plate was washed 3 times with Medium 199 medium to remove serum. […] The medium was then removed and total RNA was recovered using RNeasy Mini Kit (manufactured by QIAGEN). Using the total RNA, exhaustive analysis of gene expression was performed on GeneChip arrays for expression analysis (Rat Genome U34A Arrays: manufactured by AFFYMETRIX). The increasing rate of expression of each gene was expressed in terms of the expression level with the addition of the compound, when the expression level without addition of any compound was made 1.
# [5] = system: primary cardiomyocytes derived from rat neonates; assay: Inhibitory activity against myocardial cell death induced by doxorubicin; assay type: cell-based; settings: doxorubicin 200 μM, 18 hours; sample added 3 hours before
# Experimental: Medium 199 and a sample to be tested were added thereto, followed by incubation for 3 hours. After the incubation, doxorubicin (DOX: final concentration of 200 μM) was added to the mixture, which was incubated for further 18 hours to induce cell death. Subsequently, fetal cow serum was added thereto to reach 10%. […] Thus, the myocardial cell death inhibitory activity was examined.
structure (smiles),measurement,setting,value
"O=c1nc(-c2ccccn2)sc2ccccc12 [Compound 1, 2-(2-Pyridyl)-4H-1,3-benzothiazin-4-one]",inhibition of myocardial cell death induced by statin,[1],exhibits the activity of inhibiting myocardial cell death induced by the HMG-CoA reductase inhibitor
same,inhibition of cell death induced by serum depletion,[2],exhibits the activity of inhibiting vascular smooth muscle cell death induced by serum depletion
same,minimum effective concentration required for inhibiting the cell death,"[3]; concentration increasing mean cell count by 30% vs no compound, serum-free 4 days, mean ±SD, 3 runs",0.015 ± 0.011 µM
same,myocardial cell death inhibitory activity,"[3]; serum depletion, 4 days, WST-8 viable cell count",exhibit the activity of inhibiting myocardial cell death
same,Increasing Rate of Expression,[4]; Bilirunin-specific UDP-glucuronosyltransferase,5.2
same,Increasing Rate of Expression,[4]; Gamma-glutamylcysteine synthetase,2.4
same,Increasing Rate of Expression,[4]; Glutathione S-transferase Yb subunit,2.5
same,Increasing Rate of Expression,[4]; Glutathione S-transferase Yc1 subunit,2.1
same,Increasing Rate of Expression,[4]; Heme oxygenase-1,2.0
same,Increasing Rate of Expression,[4]; Liver glutathione S-transferase Ya subunit,11.6
same,Increasing Rate of Expression,[4]; Liver glutathione S-transferase Yc subunit,2.3
same,Increasing Rate of Expression,[4]; NAD(P)H-menadione oxidereductase,2.8
same,Increasing Rate of Expression,[4]; NAD(P)H: quinone reductase,9.4
same,Increasing Rate of Expression,"[4]; UDP-glucuronosyltransferase, exon 1",5.0
same,expression of the genes under control of Antioxidant response element (ARE),[4]; statement in words,enhances expression of the genes under control of Antioxidant response element (ARE)
same,inhibition of myocardial cell death induced by doxorubicin,[5],exhibits the activity of inhibiting myocardial cell death induced by doxorubicin
